From paper PMC6696095, “Purification and Characterization of Ornithine Decarboxylase from Aspergillus terreus; Kinetics of Inhibition by Various Inhibitors” (Molecules, 2019) come the findings set out here.

“And” between values parts separate entries of the source, which are not always exact repeats. Identical values can stand only once. Like-named read-outs stand apart in the source and are kept apart here.

The IC50 is the midpoint of a concentration-inhibition curve. A high value points to a need for much substance. As usually defined, the Km is the substrate concentration at which the rate is half of its maximum. By Vmax is commonly meant the top rate of the reaction or transport when substrate is in excess. The term kcat/Km denotes the second-order rate constant that governs catalysis at low substrate concentration.

Data set [1] has as its target T1, A. terreus ODC (Aspergillus terreus, UniProt A0ACN5CWH9). Nature of the data set: Effect of inhibitors on activity of purified A. terreus ODC (residual activity, standard TNBS assay). The format is biochemical. Conditions: for activity at 5 µg/mL / activity at 40 µg/mL / activity at 200 µg/mL / activity at 400 µg/mL: read-out: Relative Activity (%); for Relative Activity (%): enzyme preincubated 2 h, then L-ornithine, residual ODC activity; for IC50: 2 h preincubation. An excerpt: The amino acid identity of the active sites implicated in the catalysis of A. terreus ODC has been scrutinized by the response to suicide inhibitors, namely propargylgycine (PPG), guanidine thiocyanate, hydroxylamine, iodoacetamide, DTNB, MBTH and curcumin. […] Consistently, curcumin has been extensively reported a strong inhibitor to the activity of tumor cells ODC, modulating the cellular polyamine metabolism. Elevated polyamine synthesis was recognized as profound compounds for survival and rapid proliferation of tumor cells, thus, targeting the ODC, rate limiting enzyme of polyamine synthesis, has been considered as powerful chemopreventive therapy for tumor cells. […] The enzyme irreversible inactivation by carbonyl reagents such as PPG, ensures the PLP dependence of these enzymes.
(§1) The activity of ODC was determined based on the amount of released putrescine using 2,4,6-tri-nitrobenzene sulfonic acid (TNBS) reagent. […] The reaction was stopped by 10% TCA then neutralized by adding adequate amount of 2N NaOH. 1-Pentanol (2 mL) was added was added to the reaction mixture which was subsequently vortexed for 1 min and centrifuged at 5000 rpm for 5 min. The upper layer was transferred into a new tube, combined with an equal volume of 0.1 M sodium borate (pH 8.0). After vigorously mixing, 500 µL of TNBS (10 mM) reagent was added, subjected to 1 min vortex before adding 2 mL DMSO, and centrifuging at 6000 rpm for 5 min and left to separate into two layers. The upper layer containing TNP-putrescine-TNP was collected by micropipette and the absorbance at λ = 420 nm will reveal putrescine concentration based on a parallel measurement of authentic putrescine at the same conditions. The enzyme protein concentration was measured by Folinʹs reagent, comparing to a known concentration of bovine serum albumin.
Active site prediction using amino acids analogues has been recognized as one of the mechanisms for interrogation of enzymatic identity. The influence of various inhibitors namely 5,5′-dithiobis-2-nitrobenzoic acid, 3-methyl-2-benzothiazolinone-hydrazone, guanidine thiocyanate, iodoacetamide, hydroxylamine, propargylglycine and curcumin on the activity of purified ODC was estimated. The enzyme was incubated with different inhibitor concentrations (5, 40, 200, 400 µg/mL) for 2 h at 30 °C, then amended with the substrate, and the residual activity of the enzyme were determined by the standard assay. The inhibitory kinetic parameters were measured according to El-Sayed et al.

The target of data set [2] is T1, A. terreus ODC. The data set can be described thus: Substrate specificity of purified ODC, Nessler's assay (ammonia). The class given is biochemical. As to conditions: for Nessler's Assay Activity: amino acid as substrate; for Nessler's Assay Relative Activity: normalized to L-ornithine as standard substrate. The protocol: (§2) The specificity of purified A. terreus ODC towards various amino acids as substrates has been evaluated based on the putative enzymatic byproducts such as ammonia, citrulline and putrescine (see Materials and Methods). […] The putative deaminating, deiminating and decarboxylating activity of ODC for each substrate was assessed (Table 3).
(§3) The putative enzymatic byproducts such as ammonia, citrulline and putrescine were determined by Nessler’s reagent, diacetylmonoxime reagent and TNBS [42], respectively, under standard conditions. The kinetic parameters of A. terreus ODC; Michalis-Menten constant (Km), maximum velocity (Vmax), and turnover number (kcat) and catalytic efficiency towards the most hydrolysable amino acids were calculated.

In data set [3] the target is T1, A. terreus ODC. The data set can be described thus: Substrate specificity of purified ODC, TNBS assay (putrescine). Conditions: released putrescine; for TNBS Assay Activity: amino acid as substrate; for TNBS Assay Relative Activity: normalized to L-ornithine. The format is biochemical. The protocol: as §2, §1, §3
For data set [4], the target named is T1, A. terreus ODC. The data set can be described thus: Substrate specificity of purified ODC, diacetyl monoxime assay (citrulline / imino groups). The class given is biochemical. As to conditions: for Diacetyl Monoxime Assay Activity: amino acid as substrate. The protocol:
as §2, §3

Data set [5] concerns the target T1, A. terreus ODC. The data set can be described thus: Kinetic parameters of A. terreus ODC for substrates. Conditions: substrate of A. terreus ODC. The protocol: as §2, §3
Data set [6] concerns the target T1, A. terreus ODC. The format is biochemical. Conditions: Nessler's, diacetylmonoxime and TNBS assays. The protocol:
as §2, §3

The next data set relates to N=C(N)NCCC[C@H](N)C(=O)O. The data set can be described thus: purified protein, by the assay type. Conditions: other: substrate of A. terreus ODC.
In a further data set the test system is NCCCC[C@H](N)C(=O)O. Nature of the data set: purified protein, by the assay type. Conditions: other: substrate of A. terreus ODC.

Procedure for N=C(N)NCCC[C@H](N)C(=O)O: (§4) The putative enzymatic byproducts such as ammonia, citrulline and putrescine were determined by Nessler’s reagent [66], diacetylmonoxime reagent [36] and TNBS [42], respectively, under standard conditions. The kinetic parameters of A. terreus ODC; Michalis-Menten constant (Km), maximum velocity (Vmax), and turnover number (kcat) and catalytic efficiency towards the most hydrolysable amino acids were calculated.
Procedure for NCCCC[C@H](N)C(=O)O: as §4

As to `Cn1c(=NN)sc2ccccc21` [3-Methyl-2-benzo-thiazolinone hydrazone, 3-methyl-2-benzothiazolinone-hydrazone], at A. terreus ODC [1], the activity at 5 µg/mL is 41%, the activity at 40 µg/mL turned out to be 29%, the activity at 200 µg/mL came out at 12% and the activity at 400 µg/mL was 0%.

For `O=C(O)c1cc(SSc2ccc([N+](=O)[O-])c(C(=O)O)c2)ccc1[N+](=O)[O-]` [5-5′-Dithiobis-(2-nitro-benzoic acid), 5,5′-dithiobis-2-nitrobenzoic acid], the “Relative Activity (%)” value at A. terreus ODC [1] (inhibitor 5 µg/mL) is 39%; at A. terreus ODC [1] (inhibitor 40 µg/mL), 27%; on A. terreus ODC [1] (inhibitor 200 µg/mL) it was 14%; at A. terreus ODC [1] (inhibitor 400 µg/mL), 5.8%.

Turning to `COc1cc(/C=C/C(=O)CC(=O)/C=C/c2ccc(O)c(OC)c2)ccc1O` [Curcumin, diferuloylmethane], the 50% inhibitory concentration (IC50) on A. terreus ODC [1] (IC50, purified A. terreus ODC) was ~109 nM and 109 nM. On A. terreus ODC [1], the activity at 5 µg/mL was 11%, the activity at 40 µg/mL came to 0%, the activity at 200 µg/mL was 0% and the activity at 400 µg/mL was determined as 0%.

As to `NCCCC(N)(C(=O)O)C(F)F` (stereo not drawn) [DFMO, Difluoromethylornithine], the “Relative Activity (%)” value on A. terreus ODC [1] (inhibitor 5 µg/mL) is 8%; at A. terreus ODC [1] (inhibitor 40 µg/mL), 0.1%; at A. terreus ODC [1] (inhibitor 200 µg/mL) it was 0%; at A. terreus ODC [1] (inhibitor 400 µg/mL), 0%. The half-maximal inhibitory concentration (IC50) against A. terreus ODC [1] (purified A. terreus ODC) was determined as 0.02 µg/mL.

With `N#CS.N=C(N)N` [Guanidine thiocyanate, guanidine thiocyanate], the figures for the “Relative Activity (%)” value on A. terreus ODC [1] (inhibitor 5 µg/mL), on A. terreus ODC [1] (inhibitor 40 µg/mL) and at A. terreus ODC [1] (inhibitor 200 µg/mL) were 90%, 60% and 30%, respectively.

In the case of `NO` [Hydroxylamine, hydroxylamine], the “Relative Activity (%)” value at A. terreus ODC [1] (inhibitor 5 µg/mL) amounted to 45%; at A. terreus ODC [1] (inhibitor 40 µg/mL) it was 13%; at A. terreus ODC [1] (inhibitor 200 µg/mL), 0%; at A. terreus ODC [1] (inhibitor 400 µg/mL), 0%.

For `NC(=O)CI` [Iodoacetamide, iodoacetamide], the “Relative Activity (%)” value turned out to be 37% at A. terreus ODC [1] (inhibitor 5 µg/mL), 19% on A. terreus ODC [1] (inhibitor 40 µg/mL), 10% at A. terreus ODC [1] (inhibitor 200 µg/mL) and 0% at A. terreus ODC [1] (inhibitor 400 µg/mL).

On to `N=C(N)NCCC[C@H](N)C(=O)O` [L-Arginine], for which, at A. terreus ODC [2], the “Nessler's Assay Activity” value turned out to be 0.35 µmol/mg/min and the “Nessler's Assay Relative Activity” value came out at 19%. At A. terreus ODC [3], the “TNBS Assay Activity” value turned out to be 0.34 µmol/mg/min and the “TNBS Assay Relative Activity” value is 16.2%. Also, the “Diacetyl Monoxime Assay Relative Activity” value on A. terreus ODC [4] was determined as 194%. Moreover, the “Diacetyl Monoxime Assay Activity” value on A. terreus ODC [4] (deiminating activity) was determined as 0.0068 µmol/mg/min.

In the case of `NCCCC[C@H](N)C(=O)O` [L-Lysine], at A. terreus ODC [2], the “Nessler's Assay Activity” value is given as 0 µmol/mg/min and the “Nessler's Assay Relative Activity” value is on record as 0%. Further, on A. terreus ODC [3], the “TNBS Assay Activity” value is 0.44 µmol/mg/min and the “TNBS Assay Relative Activity” value amounted to 20.9%. The “Diacetyl Monoxime Assay Activity” value at A. terreus ODC [4] (deiminating activity) was 0.0045 µmol/mg/min. Moreover, the “Diacetyl Monoxime Assay Relative Activity” value at A. terreus ODC [4] (deiminating activity, normalized to L-ornithine) turned out to be 128%.

Consider `NCCC[C@H](N)C(=O)O` [L-Ornithine], for which, at A. terreus ODC [2], the “Nessler's Assay Activity” value came to 1.87 µmol/mg/min. On A. terreus ODC [5], the Km was 950 µM and the maximal velocity (Vmax) was determined as 4.8 µmol/mg/min. The Km on A. terreus ODC [5] (listed as L-ornithine) is 900 µM. Besides, the “TNBS Assay Activity” value at A. terreus ODC [3] is reported as 2.1 µmol/mg/min. Also, the “Diacetyl Monoxime Assay Activity” value on A. terreus ODC [4] (deiminating activity) worked out at 0.0035 µmol/mg/min.

Regarding `C[C@H](N)C(=O)O` [L-alanine], the “affinity of purified ODC towards the amino acid as substrate” value (shortened to “affinity”) at A. terreus ODC [6] is listed as “no detectable affinity”.

Consider `NC(=O)C[C@H](N)C(=O)O` [L-asparagine], for which the “affinity” value on A. terreus ODC [6] is “no detectable affinity”.

In the case of `N[C@@H](CS)C(=O)O` [L-cysteine], the “affinity” value at A. terreus ODC [6] was “no detectable affinity”.

For `NC(=O)CC[C@H](N)C(=O)O` [L-glutamine], the “affinity” value on A. terreus ODC [6] is reported as “no detectable affinity”.

Take `NCC(=O)O` [L-glycine]: the “affinity” value on A. terreus ODC [6] was “no detectable affinity”.

On to `CSCC[C@H](N)C(=O)O` [L-methionine], for which the “affinity” value at A. terreus ODC [6] is on record as “no detectable affinity”.

Take `N[C@@H](Cc1c[nH]c2ccccc12)C(=O)O` [L-tryptophan]: the “affinity” value at A. terreus ODC [6] is on record as “no detectable affinity”.

With `N[C@@H](Cc1ccc(O)cc1)C(=O)O` [L-tyrosine], the “affinity” value on A. terreus ODC [6] is reported as “no detectable affinity”.

On to `CC(C)[C@H](N)C(=O)O` [L-valine], for which, at A. terreus ODC [6], the “affinity” value is “no detectable affinity”.

As for `CC(=O)N[C@@H]1[C@@H](O)[C@H](O)[C@@H](CO)O[C@H]1O` [N-acetylglucosamine], the “affinity” value on A. terreus ODC [6] is listed as “no detectable affinity”.

`C#CCC(N)C(=O)O` (stereo not drawn) [Propargylgycine, propargylglycine]: the “Relative Activity (%)” value is listed as 89% at A. terreus ODC [1] (inhibitor 5 µg/mL), 30% on A. terreus ODC [1] (inhibitor 40 µg/mL), 17% on A. terreus ODC [1] (inhibitor 200 µg/mL) and 6% on A. terreus ODC [1] (inhibitor 400 µg/mL). The same compound yielded an IC50 against A. terreus ODC [1] (purified A. terreus ODC) of 20.9 µg/mL.

As to “A. terreus ODC (Aspergillus terreus NIH2624)”, in the data set with N=C(N)NCCC[C@H](N)C(=O)O, the Km came to 1400 µM and the kcat/Km came out at 0.0246 M⁻¹ s⁻¹. Moreover, in the data set on NCCCC[C@H](N)C(=O)O, the Michaelis constant (Km) is 1340 µM and the kcat/Km was 0.0283 M⁻¹ s⁻¹.
